Source: the NIST ThermoML archive (doi:10.1016/j.fluid.2013.12.022)

Test: refractive index (other wavelength) (dimensionless); xn = mol fraction of the nth substance listed
Details: 85 kPa, Liquid, Wavelength=632.8 nm, minimum deviation angle technique

CCCCCCCC[n+]1ccn(C)c1.F[P-](F)(F)(F)(F)F [1-octyl-3-methylimidazolium hexafluorophosphate] + CC(C)(C)O
Details | refractive index
312.06 K, x1 = 1 | 1.4179
314.47 K, x1 = 1 | 1.4173
316.92 K, x1 = 1 | 1.4166
317.23 K, x1 = 0.699 | 1.4113
317.35 K, x1 = 0.803 | 1.4134
317.36 K, x1 = 0.991 | 1.4149
317.38 K, x1 = 0.398 | 1.4034
319.13 K, x1 = 0.5 | 1.4064
319.2 K, x1 = 1 | 1.416
319.25 K, x1 = 0.699 | 1.4107
319.26 K, x1 = 0.803 | 1.4129
319.3 K, x1 = 0.991 | 1.4144
319.31 K, x1 = 0.398 | 1.4028
319.63 K, x1 = 0.601 | 1.4088
320.77 K, x1 = 0.5 | 1.4059
321.17 K, x1 = 0.1 | 1.3834
321.28 K, x1 = 0.991 | 1.4139
321.32 K, x1 = 1 | 1.4155
321.34 K, x1 = 0.803 | 1.4124
321.37 K, x1 = 0.2 | 1.3919
321.38 K, x1 = 0.299 | 1.3978
321.4 K, x1 = 0.699 | 1.4102
321.46 K, x1 = 0.398 | 1.4021
321.58 K, x1 = 0.601 | 1.4083
322.42 K, x1 = 0.5 | 1.4054
322.78 K, x1 = 0.299 | 1.3972
322.79 K, x1 = 0.2 | 1.3912
322.97 K, x1 = 0.1 | 1.3826
323.23 K, x1 = 0.991 | 1.4134
323.3 K, x1 = 1 | 1.4149
323.32 K, x1 = 0.699 | 1.4097
323.32 K, x1 = 0.803 | 1.4118
323.79 K, x1 = 0.601 | 1.4077
323.84 K, x1 = 0.398 | 1.4013
324.07 K, x1 = 0.5 | 1.4049
324.29 K, x1 = 0.2 | 1.3906
324.29 K, x1 = 0.299 | 1.3967
324.43 K, x1 = 0.1 | 1.3819
325 K, x1 = 0.601 | 1.4073
325.29 K, x1 = 0.991 | 1.4128
325.3 K, x1 = 0.699 | 1.4093
325.35 K, x1 = 0.803 | 1.4113
325.38 K, x1 = 1 | 1.4143
325.78 K, x1 = 0.398 | 1.4007
325.81 K, x1 = 0.299 | 1.3963
325.82 K, x1 = 0.1 | 1.3814
325.92 K, x1 = 0.5 | 1.4043
325.95 K, x1 = 0.2 | 1.39
327.11 K, x1 = 0.699 | 1.4088
327.12 K, x1 = 0.803 | 1.4108
327.13 K, x1 = 0.601 | 1.4066
327.36 K, x1 = 0.2 | 1.3894
327.4 K, x1 = 0.991 | 1.4123
327.41 K, x1 = 1 | 1.4138
327.47 K, x1 = 0.299 | 1.3957
327.72 K, x1 = 0.398 | 1.4
327.74 K, x1 = 0.5 | 1.4037
327.97 K, x1 = 0.1 | 1.3804
328.85 K, x1 = 0.601 | 1.4061
329.18 K, x1 = 0.1 | 1.3797
329.18 K, x1 = 0.2 | 1.3887
329.26 K, x1 = 0.299 | 1.3951
